Assay results as given in ChEMBL document CHEMBL1275271, “QSAR and docking studies of novel antileishmanial diaryl sulfides and sulfonamides” (Eur J Med Chem, 2010).

Key:
Leishmania donovani = test: Antileishmanial activity against Leishmania donovani; format: functional, organism-based
in vivo = details: rat, po
[1] = Toxicity in po dosed mouse; details: in vivo
[2] = Octanol-water partition coefficient, log P of the compound

Question: Which IC50 (Leishmania donovani) does the source give for `Cc1nc(Sc2nccn2-c2cc(Cl)ccc2Cl)c(C(=O)O)cc1C#N` here?
Answer: 21 µM

Question: With `O=[N+]([O-])c1ccc(Oc2c(Cl)cccc2Cl)c([N+](=O)[O-])c1Oc1c(Cl)cccc1Cl` as the compound, how does the IC50 (Leishmania donovani) read?
Answer: 80 µM

Question: With `O=C1NC(=O)c2cc([N+](=O)[O-])c(Sc3c(Cl)cccc3Cl)cc21` as the compound, how does the IC50 (Leishmania donovani) read?
Answer: 60 µM

Question: With `O=[N+]([O-])c1cc([N+](=O)[O-])c(S(=O)(=O)Nc2cccc(F)c2)c(C(F)(F)F)c1` as the compound, how does the LD50 (in vivo) read?
Answer: 620 mg/kg

Question: What about the LD50 [1] of the same compound?
Answer: 880 mg/kg

Question: And the logP [2]?
Answer: 4.39

Question: With `Cc1cc(NS(=O)(=O)c2c([N+](=O)[O-])cc([N+](=O)[O-])cc2C(F)(F)F)c(Cl)cc1Cl` as the compound, how does the LD50 (in vivo) read?
Answer: 350 mg/kg

Question: What about the LD50 [1] of the same compound?
Answer: 650 mg/kg

Question: What about the logP [2] of the same compound?
Answer: 6.44

Question: What does the source list for `CCCN(CCC)c1c([N+](=O)[O-])cc(Sc2cc(C)c(Cl)cc2Cl)cc1[N+](=O)[O-]`?
Answer: LD50 (in vivo): 1600 mg/kg; LD50 [1]: 1800 mg/kg; logP [2]: 8.66

Question: Which results are given for `N#Cc1cc([N+](=O)[O-])c(S(=O)(=O)Nc2cccc(F)c2)c([N+](=O)[O-])c1`?
Answer: LD50 (in vivo): 1200 mg/kg; LD50 [1]: 1300 mg/kg; logP [2]: 2.51

Question: With `Cc1cc(S(=O)(=O)c2c([N+](=O)[O-])cc(C#N)cc2[N+](=O)[O-])c(Cl)cc1Cl` as the compound, how does the LD50 (in vivo) read?
Answer: 1000 mg/kg

Question: What about the LD50 [1] of the same compound?
Answer: 1100 mg/kg

Question: And the logP [2]?
Answer: 4.08

Question: Which LD50 (in vivo) does the source give for `CCCN(CCC)c1c([N+](=O)[O-])cc(Sc2ccc(OC)cc2)cc1[N+](=O)[O-]` here?
Answer: 1900 mg/kg

Question: What about the LD50 [1] of the same compound?
Answer: 1600 mg/kg

Question: What about the logP [2] of the same compound?
Answer: 6.53

Question: Which LD50 (in vivo) does the source give for `Cc1cc(S(=O)(=O)c2c([N+](=O)[O-])cc(C(F)(F)F)cc2[N+](=O)[O-])c(Cl)cc1Cl` here?
Answer: 1200 mg/kg

Question: What about the LD50 [1] of the same compound?
Answer: 1800 mg/kg

Question: And the logP [2]?
Answer: 5.72

Question: Which IC50 (Leishmania donovani) does the source give for `CCCN(CCC)c1c([N+](=O)[O-])cc(C(N)=O)cc1[N+](=O)[O-]` here?
Answer: 32 µM

Question: With `O=[N+]([O-])c1cc(C(F)(F)F)cc([N+](=O)[O-])c1Sc1ccc(Cl)cc1Cl` as the compound, how does the LD50 (in vivo) read?
Answer: 600 mg/kg

Question: And the LD50 [1]?
Answer: 780 mg/kg

Question: What about the logP [2] of the same compound?
Answer: 6.73

Question: Which IC50 (Leishmania donovani) does the source give for `Cc1cc(Sc2ncc(C(F)(F)F)cc2[N+](=O)[O-])c(Cl)cc1Cl` here?
Answer: 98.2 µM

Question: Which IC50 (Leishmania donovani) does the source give for `Cc1cc(Sc2ccc(C(F)(F)F)cc2[N+](=O)[O-])c(Cl)cc1Cl` here?
Answer: 59 µM

Question: With `COc1ccc(Sc2c([N+](=O)[O-])cc(C#N)cc2[N+](=O)[O-])cc1` as the compound, how does the LD50 (in vivo) read?
Answer: 1400 mg/kg

Question: And the LD50 [1]?
Answer: 1100 mg/kg

Question: And the IC50 (Leishmania donovani)?
Answer: 0.67 µM

Question: What about the logP [2] of the same compound?
Answer: 3.56

Question: Which IC50 (Leishmania donovani) does the source give for `CCCN(CCC)c1c([N+](=O)[O-])cc(S(=O)(=O)Nc2ccc(OC)cc2)cc1[N+](=O)[O-]` here?
Answer: 76 µM

Question: For `CCCCCCN(CCCCCC)c1c([N+](=O)[O-])cc(S(N)(=O)=O)cc1[N+](=O)[O-]`, which IC50 (Leishmania donovani) is on record?
Answer: 12 µM

Question: What does the source list for `CCCN(CCC)c1c([N+](=O)[O-])cc(S(N)(=O)=O)cc1[N+](=O)[O-]` [ORYZALIN]?
Answer: LD50 (in vivo): 1400 mg/kg; LD50 [1]: 1600 mg/kg; logP [2]: 3.38
